In one assay the target is T1, AXL (Homo sapiens, UniProt P30530).
T1 sequence (P30530 26-894): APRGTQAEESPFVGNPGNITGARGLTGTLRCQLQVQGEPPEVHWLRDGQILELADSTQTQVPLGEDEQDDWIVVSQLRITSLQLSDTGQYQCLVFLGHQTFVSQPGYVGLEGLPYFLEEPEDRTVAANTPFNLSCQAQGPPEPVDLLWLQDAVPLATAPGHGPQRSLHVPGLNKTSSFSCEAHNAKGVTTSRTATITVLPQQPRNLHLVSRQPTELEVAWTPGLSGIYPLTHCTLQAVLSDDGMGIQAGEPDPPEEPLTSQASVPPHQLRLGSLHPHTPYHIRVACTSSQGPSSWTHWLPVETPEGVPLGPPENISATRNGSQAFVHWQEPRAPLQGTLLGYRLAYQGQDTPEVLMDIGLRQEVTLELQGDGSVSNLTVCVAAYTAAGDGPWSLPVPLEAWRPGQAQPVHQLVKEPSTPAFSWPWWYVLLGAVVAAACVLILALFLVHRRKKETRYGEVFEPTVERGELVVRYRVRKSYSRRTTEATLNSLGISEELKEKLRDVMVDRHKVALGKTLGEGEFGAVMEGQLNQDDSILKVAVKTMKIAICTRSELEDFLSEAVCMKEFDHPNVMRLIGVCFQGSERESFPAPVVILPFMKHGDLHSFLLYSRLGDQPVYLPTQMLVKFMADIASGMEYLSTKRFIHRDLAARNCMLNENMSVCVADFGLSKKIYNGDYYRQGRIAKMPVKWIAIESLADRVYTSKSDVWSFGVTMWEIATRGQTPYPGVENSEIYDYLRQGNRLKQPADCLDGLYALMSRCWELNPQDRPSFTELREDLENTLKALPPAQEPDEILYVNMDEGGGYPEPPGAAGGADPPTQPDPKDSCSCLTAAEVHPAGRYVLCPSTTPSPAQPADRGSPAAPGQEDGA
Briefly: HotSpot kinase assay: AXL. In kind it is biochemical. Conditions: 100 nM compound, read-out: % Enzyme Inhibition @ 100 nM AXL. As to the method: Kinase assays were performed using additional compounds against a panel of 4 kinases: AXL; c-Met; c-Mer; and Trk C. Each compound was tested at a concentration of […] in single duplicate mode against the 4 kinases. Compounds were prepared as 10 mM stock solutions in DMSO prior to use in the assay. […] IC50 values and curve fits were obtained using Prism (GraphPad Software).
The screening was performed using the “HotSpot” assay platform. The assay measures the conversion of a peptide substrate to ^33P-labelled phosphorylated product. Briefly, specific kinase/substrate pairs along with required cofactors were prepared in reaction buffer. Specifically, the substrate was prepared in reaction buffer (20 mM Hepes, pH 7.5; 10 mM MgCl2; 1 mM EGTA; 0.02% Brij35; 0.02 mg/mL BSA; 0.1 mM Na3VO4; 2 mM DTT; 1% DMSO), followed by delivery of any required cofactor to the resulting substrate solution. The corresponding kinase was delivered into the substrate solution and the reaction mixture was mixed gently. Compound was delivered into the reaction mixture, followed 15-20 minutes later by addition of a mixture of ATP (Sigma, St. Louis Mo.) and ^33P ATP (specific activity 0.01 μCi/μL final; Perkin Elmer, Waltham, Mass.) to a final concentration of 10 μM-30 μM to initiate the reaction. […] The percent of enzyme inhibition was calculated based on the percent of remaining kinase activity.

Another assay addresses T2, IR (Homo sapiens, UniProt P06213).
T2 construct: purchased Millipore 14-803
Briefly: In vitro IR enzymatic assay (ADP-Glo kinase assay). In kind it is biochemical. Conditions: activated IR. As to the method: IC50 values of the compounds of the invention against IGF-1R and IR were measured in vitro using an ADP-Glo kinase assay Kit (Promega). […] Kinase reactions in both assays were conducted at 30° C. for 20 min with increasing concentrations of compounds of the invention.
Additional compounds of the invention were screened against activated IR.

Molecules are shown by their SMILES. Values joined by “and” are separate entries in the source; they are usually repeats but may differ in a detail not shown here. Identical values can stand only once. A value given as a limit tells only on which side of the number the result lay.

T2 sequence (P06213 28-1382): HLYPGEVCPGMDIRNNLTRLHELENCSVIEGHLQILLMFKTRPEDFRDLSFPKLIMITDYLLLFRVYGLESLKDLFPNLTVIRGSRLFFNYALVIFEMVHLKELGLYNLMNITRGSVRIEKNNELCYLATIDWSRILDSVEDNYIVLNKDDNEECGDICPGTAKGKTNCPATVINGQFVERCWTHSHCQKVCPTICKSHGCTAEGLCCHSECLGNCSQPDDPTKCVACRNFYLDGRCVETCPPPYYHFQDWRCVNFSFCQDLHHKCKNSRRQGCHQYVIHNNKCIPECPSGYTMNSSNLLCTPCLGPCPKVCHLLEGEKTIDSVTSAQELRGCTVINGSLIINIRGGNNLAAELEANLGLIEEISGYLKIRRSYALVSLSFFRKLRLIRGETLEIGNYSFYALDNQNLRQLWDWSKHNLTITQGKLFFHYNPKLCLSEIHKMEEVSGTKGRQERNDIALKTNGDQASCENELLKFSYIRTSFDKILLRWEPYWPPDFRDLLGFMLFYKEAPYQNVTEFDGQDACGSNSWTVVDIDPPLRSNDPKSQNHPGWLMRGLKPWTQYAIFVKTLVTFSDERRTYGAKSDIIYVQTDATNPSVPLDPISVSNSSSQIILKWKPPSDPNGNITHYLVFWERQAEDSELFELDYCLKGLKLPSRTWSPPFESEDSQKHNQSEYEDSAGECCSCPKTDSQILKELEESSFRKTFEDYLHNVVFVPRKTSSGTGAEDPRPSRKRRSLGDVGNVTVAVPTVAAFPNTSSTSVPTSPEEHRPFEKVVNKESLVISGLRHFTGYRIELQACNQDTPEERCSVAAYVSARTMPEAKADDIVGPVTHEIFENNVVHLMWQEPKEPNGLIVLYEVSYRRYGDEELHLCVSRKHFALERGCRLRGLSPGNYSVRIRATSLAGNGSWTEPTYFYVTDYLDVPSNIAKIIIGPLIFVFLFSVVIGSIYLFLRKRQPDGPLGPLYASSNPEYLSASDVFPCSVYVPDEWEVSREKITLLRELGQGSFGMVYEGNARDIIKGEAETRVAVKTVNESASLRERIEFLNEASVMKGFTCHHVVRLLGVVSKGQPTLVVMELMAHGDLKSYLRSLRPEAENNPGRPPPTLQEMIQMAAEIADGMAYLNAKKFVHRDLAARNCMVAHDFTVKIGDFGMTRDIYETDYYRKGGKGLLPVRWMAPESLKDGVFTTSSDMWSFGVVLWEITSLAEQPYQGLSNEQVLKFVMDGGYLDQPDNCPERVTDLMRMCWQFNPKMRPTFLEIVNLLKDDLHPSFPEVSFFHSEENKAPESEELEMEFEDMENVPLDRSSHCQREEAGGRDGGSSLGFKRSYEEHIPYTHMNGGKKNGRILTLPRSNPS

Regarding `CC(C)c1cc(Nc2nc(N3CCCC3C(=O)N(C)C)nc3c2CCC3)n[nH]1` (single isomer, unassigned) [Compound 20b, 1-(4-(5-isopropyl-1H-pyrazol-3-ylamino)-6,7-dihydro-5H-cyclopenta[d]pyrimidin-2-yl)-N,N-dimethylpyrrolidine-2-carboxamide], on AXL, the inhibition at 0.1 µM was less than 39%. Moreover, at IR, the IC50 is 1800 nM and 1700 nM.
